Converted amounts (≈) assume the structure as drawn.
Experiments:
[1] = test system: Staphylococcus aureus; assay: Antibacterial activity against Staphylococcus aureus ATCC 25923 assessed as growth inhibition after 24 hr by two-fold serial dilution method; type: functional; conditions: ATCC 25923, 24 h
[2] = test system: Staphylococcus aureus; assay: Antibacterial activity against Staphylococcus aureus ATCC 25923 assessed as diameter of growth inhibition zone at 100 ug/ml after 24 hr by cup-plate method; type: functional; conditions: ATCC 25923, 24 h, read-out: DIZ
[3] = test system: Escherichia coli; assay: Antibacterial activity against Escherichia coli ATCC 25922 assessed as growth inhibition after 24 hr by two-fold serial dilution method; type: functional; conditions: ATCC 25922, 24 h
[4] = test system: Bacillus subtilis; assay: Antibacterial activity against Bacillus subtilis ATCC 6633 assessed as growth inhibition after 24 hr by two-fold serial dilution method; type: functional; conditions: ATCC 6633, 24 h
[5] = test system: Escherichia coli; assay: Antibacterial activity against Escherichia coli ATCC 25922 assessed as diameter of growth inhibition zone at 100 ug/ml after 24 hr by cup-plate method; type: functional; conditions: ATCC 25922, 24 h, read-out: DIZ
[6] = test system: Pseudomonas aeruginosa; assay: Antibacterial activity against Pseudomonas aeruginosa ATCC 27853 assessed as growth inhibition after 24 hr by two-fold serial dilution method; type: functional; conditions: ATCC 27853, 24 h
[7] = test system: Pseudomonas aeruginosa; assay: Antibacterial activity against Pseudomonas aeruginosa ATCC 27853 assessed as diameter of growth inhibition zone at 100 ug/ml after 24 hr by cup-plate method; type: functional; conditions: ATCC 27853, 24 h, read-out: DIZ
[8] = test system: Bacillus subtilis; assay: Antibacterial activity against Bacillus subtilis ATCC 6633 assessed as diameter of growth inhibition zone at 100 ug/ml after 24 hr by cup plate method; type: functional; conditions: ATCC 6633, 24 h, read-out: DIZ
[9] = test system: Radical scavenging activity; assay: Antioxidant activity assessed as DPPH radical scavenging activity at 40 ug/ml after 30 min; type: functional
[10] = Cytotoxicity against Homo sapiens (human) MDA231 cells assessed as inhibition of cell growth after 48 hr by MTT assay; type: functional, cell-based; conditions: MDA-MB-231, 48 h
[11] = test system: HT-29; assay: Cytotoxicity against Homo sapiens (human) HT-29 cells assessed as inhibition of cell growth after 48 hr by MTT assay; type: functional, cell-based; conditions: HT-29, 48 h

With `CC1(C)S[C@@H]2[C@H](NC(=O)[C@H](N)c3ccccc3)C(=O)N2[C@H]1C(=O)O` [AMPICILLIN] the MIC [1] was less than 6.25 µg/mL, the zone of inhibition at 100 µg/mL [2] was 28 mm and the MIC [3] was less than 6.25 µg/mL. The MIC [4] was less than 6.25 µg/mL, the zone of inhibition at 100 µg/mL [5] was 28 mm and the MIC [6] was less than 6.25 µg/mL. It also gave a zone of inhibition at 100 µg/mL [7] of 28 mm and a zone of inhibition at 100 µg/mL [8] of 28 mm.

Compound `COc1ccc(-n2c(S)nnc2CSc2nnc(-c3ccccc3)n2-c2ccccc2)cc1` has an MIC [1] of 25 µg/mL (≈ 52.9 µM), a zone of inhibition at 100 µg/mL [2] of 21 mm and an MIC [3] of 50 µg/mL (≈ 106 µM). For the same compound, the Activity [9] was 63%, the IC50 [10] was 29.2 µM and the MIC [4] was 50 µg/mL (≈ 106 µM). It also gave a zone of inhibition at 100 µg/mL [5] of 21 mm, an MIC [6] of 100 µg/mL (≈ 212 µM) and an IC50 [11] of 27.7 µM. The zone of inhibition at 100 µg/mL [7] was 21 mm and the zone of inhibition at 100 µg/mL [8] was 21 mm.

`CCOc1ccc(-n2c(S)nnc2Sc2nnc(-c3ccccc3)n2-c2ccccc2)cc1` showed an MIC [1] of 100 µg/mL (≈ 212 µM), a zone of inhibition at 100 µg/mL [2] of 5 mm and an MIC [3] of 100 µg/mL (≈ 212 µM). For the same compound, the Activity [9] was 59%, the IC50 [10] was 43.9 µM and the MIC [4] was 100 µg/mL (≈ 212 µM). It also gave a zone of inhibition at 100 µg/mL [5] of 5 mm, an MIC [6] of 100 µg/mL (≈ 212 µM) and an IC50 [11] of 46.8 µM. The zone of inhibition at 100 µg/mL [7] was 5 mm and the zone of inhibition at 100 µg/mL [8] was 5 mm.

In the case of `O=C1O[C@H]([C@@H](O)CO)C(O)=C1O`, the Activity [9] is reported as 94%.

`CCOc1ccc(-n2c(S)nnc2CSc2nnc(-c3ccccc3)n2-c2ccccc2)cc1` gave an MIC [1] of 100 µg/mL (≈ 205 µM), a zone of inhibition at 100 µg/mL [2] of 5 mm and an MIC [3] of 100 µg/mL (≈ 205 µM). It also gave an Activity [9] of 34%, an MIC [4] of 100 µg/mL (≈ 205 µM) and a zone of inhibition at 100 µg/mL [5] of 5 mm. It also gave an MIC [6] of 100 µg/mL (≈ 205 µM), a zone of inhibition at 100 µg/mL [7] of 5 mm and a zone of inhibition at 100 µg/mL [8] of 5 mm.

Compound `Fc1ccc(-n2c(S)nnc2Sc2nnc(-c3ccccc3)n2-c2ccccc2)cc1` has an MIC [1] of 25 µg/mL (≈ 56 µM), a zone of inhibition at 100 µg/mL [2] of 16 mm and an MIC [3] of 50 µg/mL (≈ 112 µM). It also gave an Activity [9] of 60%, an IC50 [10] of 29.7 µM and an MIC [4] of 25 µg/mL (≈ 56 µM). It also gave a zone of inhibition at 100 µg/mL [5] of 16 mm, an MIC [6] of 50 µg/mL (≈ 112 µM) and an IC50 [11] of 32.8 µM. It also gave a zone of inhibition at 100 µg/mL [7] of 16 mm and a zone of inhibition at 100 µg/mL [8] of 16 mm.

Work on `COc1ccc(-n2c(S)nnc2Sc2nnc(-c3ccccc3)n2-c2ccccc2)cc1` yielded an MIC [1] of 100 µg/mL (≈ 218 µM), a zone of inhibition at 100 µg/mL [2] of 5 mm and an MIC [3] of 100 µg/mL (≈ 218 µM). The Activity [9] was 28%, the MIC [4] was 100 µg/mL (≈ 218 µM) and the zone of inhibition at 100 µg/mL [5] was 5 mm. The MIC [6] was 100 µg/mL (≈ 218 µM), the zone of inhibition at 100 µg/mL [7] was 5 mm and the zone of inhibition at 100 µg/mL [8] was 5 mm.

Compound `Sc1nnc(Sc2nnc(-c3ccccc3)n2-c2ccccc2)n1-c1ccccc1` has an MIC [1] of 100 µg/mL (≈ 233 µM), a zone of inhibition at 100 µg/mL [2] of 5 mm and an MIC [3] of 100 µg/mL (≈ 233 µM). The Activity [9] was 63%, the IC50 [10] was 34.6 µM and the MIC [4] was 100 µg/mL (≈ 233 µM). For the same compound, the zone of inhibition at 100 µg/mL [5] was 5 mm, the MIC [6] was 100 µg/mL (≈ 233 µM) and the IC50 [11] was 28.3 µM. The zone of inhibition at 100 µg/mL [7] was 5 mm and the zone of inhibition at 100 µg/mL [8] was 5 mm.

`CC(C)n1c(S)nnc1CSc1nnc(-c2ccccc2)n1-c1ccccc1` gave an MIC [1] of 100 µg/mL (≈ 245 µM), a zone of inhibition at 100 µg/mL [2] of 5 mm and an MIC [3] of 100 µg/mL (≈ 245 µM). For the same compound, the Activity [9] was 42%, the MIC [4] was 100 µg/mL (≈ 245 µM) and the zone of inhibition at 100 µg/mL [5] was 5 mm. It also gave an MIC [6] of 100 µg/mL (≈ 245 µM), a zone of inhibition at 100 µg/mL [7] of 5 mm and a zone of inhibition at 100 µg/mL [8] of 5 mm.

`O=c1[nH]cc(F)c(=O)[nH]1` [FLUOROURACIL] gave an IC50 [10] of 2.72 µM and an IC50 [11] of 3.24 µM.

For `Fc1ccc(-n2c(S)nnc2CSc2nnc(-c3ccccc3)n2-c2ccccc2)cc1`, the MIC [1] was 25 µg/mL (≈ 54.3 µM), the zone of inhibition at 100 µg/mL [2] was 21 mm and the MIC [3] was 25 µg/mL (≈ 54.3 µM). The Activity [9] was 72%, the IC50 [10] was 26.8 µM and the MIC [4] was 12.5 µg/mL (≈ 27.1 µM). For the same compound, the zone of inhibition at 100 µg/mL [5] was 21 mm, the MIC [6] was 12.5 µg/mL (≈ 27.1 µM) and the IC50 [11] was 16.7 µM. The zone of inhibition at 100 µg/mL [7] was 21 mm and the zone of inhibition at 100 µg/mL [8] was 21 mm.

Compound `Sc1nnc(CSc2nnc(-c3ccccc3)n2-c2ccccc2)n1-c1ccc(Cl)cc1` has an MIC [1] of 50 µg/mL (≈ 105 µM), a zone of inhibition at 100 µg/mL [2] of 16 mm and an MIC [3] of 50 µg/mL (≈ 105 µM). It also gave an Activity [9] of 65%, an IC50 [10] of 50.3 µM and an MIC [4] of 25 µg/mL (≈ 52.4 µM). It also gave a zone of inhibition at 100 µg/mL [5] of 16 mm, an MIC [6] of 100 µg/mL (≈ 210 µM) and an IC50 [11] of 36.6 µM. It also gave a zone of inhibition at 100 µg/mL [7] of 16 mm and a zone of inhibition at 100 µg/mL [8] of 16 mm.

For `Sc1nnc(CSc2nnc(-c3ccccc3)n2-c2ccccc2)n1-c1ccccc1`, the MIC [1] was 12.5 µg/mL (≈ 28.2 µM), the zone of inhibition at 100 µg/mL [2] was 16 mm and the MIC [3] was 25 µg/mL (≈ 56.5 µM). For the same compound, the Activity [9] was 85%, the IC50 [10] was 8.57 µM and the MIC [4] was 12.5 µg/mL (≈ 28.2 µM). For the same compound, the zone of inhibition at 100 µg/mL [5] was 16 mm, the MIC [6] was 50 µg/mL (≈ 113 µM) and the IC50 [11] was 5.49 µM. For the same compound, the zone of inhibition at 100 µg/mL [7] was 16 mm and the zone of inhibition at 100 µg/mL [8] was 16 mm.

For `Sc1nnc(Sc2nnc(-c3ccccc3)n2-c2ccccc2)n1-c1ccc(Cl)cc1`, the MIC [1] was 12.5 µg/mL (≈ 27 µM), the zone of inhibition at 100 µg/mL [2] was 16 mm and the MIC [3] was 12.5 µg/mL (≈ 27 µM). The Activity [9] was 64%, the IC50 [10] was 49.7 µM and the MIC [4] was 25 µg/mL (≈ 54 µM). It also gave a zone of inhibition at 100 µg/mL [5] of 16 mm, an MIC [6] of 25 µg/mL (≈ 54 µM) and an IC50 [11] of 38.4 µM. The zone of inhibition at 100 µg/mL [7] was 16 mm and the zone of inhibition at 100 µg/mL [8] was 16 mm.

With `CC(C)n1c(S)nnc1Sc1nnc(-c2ccccc2)n1-c1ccccc1` the MIC [1] was 100 µg/mL (≈ 253 µM), the zone of inhibition at 100 µg/mL [2] was 5 mm and the MIC [3] was 100 µg/mL (≈ 253 µM). The Activity [9] was 39%, the MIC [4] was 100 µg/mL (≈ 253 µM) and the zone of inhibition at 100 µg/mL [5] was 5 mm. For the same compound, the MIC [6] was 100 µg/mL (≈ 253 µM), the zone of inhibition at 100 µg/mL [7] was 5 mm and the zone of inhibition at 100 µg/mL [8] was 5 mm.
